Assay results: US6488943B1, “Antimicrobial wipes which provide improved immediate germ reduction” (The Procter & Gamble Company, priority 1999, dated 2002)

Tested on: Vibrio fischerio
Test: Microtox Response Test (bioluminescence of Microtox Acute Toxicity Reagent)
Format: cell-based
Settings: pure anionic surfactant; EC50 for 50% decrease of bioluminescence, 5 minutes
Experimental: Reference: Microtox Manual: A Toxicity Testing Handbook, 1992 Volume I-IV; Microbics Corporation.
Equipment: Microtox M500 Toxicity Testing Unit; Microbics Corporation Connected to computer for data acquisition and analysis according to above reference.
1. Preparation of Sample Stock Solution (Standard Concentration: 1000 ppm)
The stock solution of the test anionic surfactant sample is prepared and used as a stock solution from which all other dilutions are made. The standard “starting concentration”, the highest concentration to be tested, is 500 ppm. […]
a) Turn on test unit and allow reagent well temperature to equilibrate at 5.5° C. and incubator block and read well temperature to equilibrate at 15° C. […]
c) Place the assay cuvette containing reagent which corresponds to the test blank into the read well and press SET. After the cuvette has resurfaced press READ and the value will be captured by the computer.
d) Similarly read the remaining 7 cuvettes containing reagent when prompted by the computer by pressing the READ button with the correct cuvette in the READ well.
e) After all 8 initial reading have been taken, transfer 500 μl of the diluted test substance into their corresponding cuvette containing the reagent. […]

Compound	Microtox Index [ppm]
CCCCCCCCCCCCOS(=O)(=O)O.N [ammonium lauryl sulfate]	1.0
ammonium laureth-3 sulfate	120
